Entries after “also recorded” stand apart in the source; their conditions may differ.
Experiments:
[1] = Male mice treated with STZ alone; assay type: in vivo; details: male mice treated with STZ alone for 20 weeks
[2] = system: WRL-68; test: Cell proliferation after BA treatment, WRL-68; assay type: cell-based, human; details: BA treatment 14 days in high glucose (27.5 mM) and oleic acid (0.3 mM)
Description: (§1) Normal human hepatic cell lines WRL-68 and THLE-2 were purchased from Sigma. For BA treatment, cells were harvested, rinsed twice in PBS, resuspended in sugar-free DMEM (Life Technologies) supplemented with 10% charcoal-stripped FBS and seeded into 6-well plate at a density of 5×10^4/well. […] After 14 days treatment, normal medium (DMEM-F12 containing 10% FBS) were added into each well to replace the spent media. Cell proliferation and anchorage-independent growth assays were performed in the normal medium. Additionally, western blot assay was performed to analyze the alteration of oncoprotein c-myc expression.

[3] = system: THLE-2; test: Cell proliferation after BA treatment, THLE-2; assay type: cell-based, human; details: BA treatment 14 days in high glucose (27.5 mM) and oleic acid (0.3 mM)
Description: as §1

[4] = system: HepG2; test: Cell proliferation after BA treatment, HepG2; assay type: cell-based, human; details: BA treatment 14 days, 100 μM
Description: (§2) Human cancer cell line, HepG2, was purchased from Sigma and maintained in DMEM-F12 (Life Technologies) supplemented with 10% fetal bovine serum (FBS, Life Technologies). For BA treatment, cells were harvested, rinsed twice with PBS, seeded in sugar-free DMEM (Life Technologies) supplemented with 10% charcoal-stripped FBS and 6 mM glucose. […] The spent media was replaced by fresh normal medium (DMEM-F12 containing 10% FBS) 14 days later. And then cells were used for cell proliferation assay and western blot analysis for the tumor suppressor protein CEBPa.

[5] = system: WRL-68; test: Anchorage-independent growth assay, WRL-68; assay type: cell-based, human; details: BA treatment under high glucose and high fat condition
Description: as §1, with “5×10^4/well. We set the glucose (Glc, Sigma) at 27.5 mM and Oleic acid (OA, Sigma) at 0.3 mM to mimic high glucose and fat conditions in vitro.” for “5×10^4/well.”

[6] = system: c-myc; test: Western blot of oncoprotein c-myc in WRL-68 cells; assay type: cell-based, human
Description: as §1, with “5×10^4/well. We set the glucose (Glc, Sigma) at 27.5 mM and Oleic acid (OA, Sigma) at 0.3 mM to mimic high glucose and fat conditions in vitro.” for “5×10^4/well.”
(§3) Primary antibodies for c-myc (Santa Cruz), CEBPa (Santa Cruz) and Actin (Li-cor) were purchased and used with a diluted concentration as indicated by the manufacturers.

[7] = system: CEBPα; test: Western blot of tumor suppressor protein CEBPα in HepG2 cells; assay type: cell-based, human
Description: as §2, §3

SMILES | HCC formation [1] | WRL-68 proliferation [2] | THLE-2 proliferation [3] | HepG2 cell proliferation [4] | anchorage-independent growth of WRL-68 compared to those treated with high glucose and high fat [5] | anchorage-independent growth of WRL-68 compared with parental cells [5] | expression of oncoprotein c-myc [6] | expression of tumor suppressor gene CEBPα [7]
CN(N=O)C(=O)N[C@H]1C(O)O[C@H](CO)[C@@H](O)[C@@H]1O (mixture of isomers) [STZ, streptozotocin] | no HCC was observed | – | – | – | – | – | – | –
C[C@H](CCC(=O)O)[C@H]1CC[C@H]2[C@@H]3[C@H](O)C[C@@H]4C[C@H](O)CC[C@]4(C)[C@H]3C[C@H](O)[C@]12C [CA, cholic acid] | – | significantly promoted | significantly promoted | significantly promoted | – | – | – | –
C[C@H](CCC(=O)O)[C@H]1CC[C@H]2[C@@H]3CC[C@@H]4C[C@H](O)CC[C@]4(C)[C@H]3C[C@H](O)[C@]12C [DCA, deoxycholic acid] | – | significantly promoted | significantly promoted | significantly promoted | significantly increased | didn't enhance | increased | –
CC(CCC(=O)NCC(=O)O)C1CCC2C3C(O)CC4CC(O)CCC4(C)C3CCC12C (centres unmarked) [GCDCA, glycochenodeoxycholic acid] | – | very little influence | – | – | – | – | – | –
C[C@H](CCC(=O)NCCS(=O)(=O)O)[C@H]1CC[C@H]2[C@@H]3[C@H](O)C[C@@H]4C[C@H](O)CC[C@]4(C)[C@H]3C[C@H](O)[C@]12C [TCA, taurocholic acid] | – | very little influence | – | – | – | – | – | –
C[C@H](CCC(=O)NCCS(=O)(=O)O)[C@H]1CC[C@H]2[C@@H]3[C@H](O)C[C@@H]4C[C@H](O)CC[C@]4(C)[C@H]3CC[C@]12C [TCDCA, taurochenodeoxycholic acid] | – | significantly promoted | significantly promoted | significantly promoted; also recorded: markedly increased | – | – | increased | reduced

Source: patent US12038445B2, “Liver disease-related biomarkers and methods of use thereof” (Human Metabolomics Institute, Inc., priority 2016, dated 2024)
